Experimental data taken from patent US20260262643A1, “HERBICIDAL BENZOXAZINES” (FMC CORPORATION, priority 2022, published 2026).

Experiments:
[1] = system: ragweed; assay: Test C postemergence; assay type: in vivo, Ambrosia artemisiifolia; conditions: 10 days, 0 to 100 scale (0 no effect, 100 complete control)
In short: (§1)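 Seeds in loam–sand blend received preemergence directed soil spray of test chemicals in non-phytotoxic solvent with surfactant; postemergence treatment was applied at one- to two-leaf stage (2–10 cm). After 10 days in greenhouse, injury rated visually versus untreated controls, 0 (no effect) to 100 (complete control).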

[2] = system: ragweed; assay: Test C preemergence; assay type: in vivo, Ambrosia artemisiifolia
In short: as §1

[3] = system: oat, wild; assay: Test C postemergence; assay type: in vivo, Avena fatua; conditions: 10 days, 0 to 100 scale (0 no effect, 100 complete control)
In short: as §1

[4] = system: sedge, umbrella; assay: Test D flooded paddy test; assay type: in vivo, Cyperus difformis; conditions: 250 g ai/ha, applied to paddy water, visual rating after 13 to 14 days, scale 0 to 100 (0 no effect, 100 complete control)
In short: (§2)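 Plants grown to the 2-leaf stage; pots flooded to 3 cm above soil at treatment and held at that depth throughout. Test compounds applied directly to the paddy water. After 13 to 14 days in a greenhouse, response was rated visually versus controls on a 0 (no effect) to 100 (complete control) scale.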

[5] = system: barnyardgrass; assay: Test D flooded paddy test; assay type: in vivo, Echinochloa crus-galli; conditions: 250 g ai/ha, applied to paddy water, visual rating after 13 to 14 days, scale 0 to 100 (0 no effect, 100 complete control)
In short: as §2

[6] = system: foxtail, giant; assay: Test C preemergence; assay type: in vivo, Setaria faberi
From the text: (§3) Seeds of plant species selected from barnyardgrass (Echinochloa crusgalli), blackgrass (Alopecurus myosuroides), corn (Zea mays), foxtail, giant (giant foxtail, Setaria faberi), green foxtail (Setaria viridis), goosegrass (Eleusine indica), kochia (Bassia scoparia), oat, wild (wild oat, Avena fatua), pigweed, palmer (palmer amaranth, palmer pigweed, Amaranthus palmeri), Pigweed, Redroot (redroot pigweed, Amaranthus retroflexus), ragweed (common ragweed, Ambrosia artemisiifolia), ryegrass, Italian ([…] ryegrass, Lolium multiflorum), soybean (Glycine max), and wheat (Triticum aestivum) were planted into a blend of loam soil and sand and treated preemergence with a directed soil spray using test chemicals formulated in a non-phytotoxic solvent mixture which included a surfactant. At the same time, plants selected from these crops and weed species and also galium (catchweed bedstraw, Galium aparine) and horseweed (Erigeron canadensis) were planted in pots containing the same blend of loam soil and sand and treated with postemergence applications of test chemicals formulated in the same manner. Plants ranged in height from 2 to 10 cm and were in the one- to two-leaf stage for the postemergence treatment. Treated plants and untreated controls were maintained in a greenhouse for 10 days, after which time all treated plants were compared to untreated controls and visually evaluated for injury. Plant response ratings, summarized in Table C, are based on a 0 to 100 scale where 0 is no effect and 100 is complete control. A dash (-) response means no test result.

[7] = system: wheat; assay: Test C postemergence; assay type: in vivo, Triticum aestivum; conditions: 10 days, 0 to 100 scale (0 no effect, 100 complete control)
In short: as §1

[8] = system: soybean; assay: Test C preemergence; assay type: in vivo, Glycine max
In short: as §1

[9] = system: oat, wild; assay: Test C preemergence; assay type: in vivo, Avena fatua
In short: as §1

[10] = system: barnyardgrass; assay: Test C preemergence; assay type: in vivo, Echinochloa crusgalli
In short: as §1

[11] = system: horseweed; assay: Test C postemergence; assay type: in vivo, Erigeron canadensis; conditions: 10 days, 0 to 100 scale (0 no effect, 100 complete control)
In short: as §1

[12] = system: ryegrass, Italian; assay: Test C preemergence; assay type: in vivo, Lolium multiflorum
In short: as §1

[13] = system: kochia; assay: Test C preemergence; assay type: in vivo, Bassia scoparia
In short: as §1

[14] = system: ducksalad; assay: Test D flooded paddy test; assay type: in vivo, Heteranthera limosa; conditions: 250 g ai/ha, applied to paddy water, visual rating after 13 to 14 days, scale 0 to 100 (0 no effect, 100 complete control)
In short: as §2

[15] = system: pigweed, palmer; assay: Test C postemergence; assay type: in vivo, Amaranthus palmeri; conditions: 10 days, 0 to 100 scale (0 no effect, 100 complete control)
In short: as §1

[16] = system: foxtail, giant; assay: Test C postemergence; assay type: in vivo, Setaria faberi; conditions: 10 days, 0 to 100 scale (0 no effect, 100 complete control)
From the text: as §3

[17] = system: soybean; assay: Test C postemergence; assay type: in vivo, Glycine max; conditions: 10 days, 0 to 100 scale (0 no effect, 100 complete control)
In short: as §1

[18] = system: barnyardgrass; assay: Test C postemergence; assay type: in vivo, Echinochloa crusgalli; conditions: 10 days, 0 to 100 scale (0 no effect, 100 complete control)
In short: as §1

[19] = system: wheat; assay: Test C preemergence; assay type: in vivo, Triticum aestivum
In short: as §1

[20] = system: blackgrass; assay: Test C preemergence; assay type: in vivo, Alopecurus myosuroides
In short: as §1

[21] = system: ryegrass, Italian; assay: Test C postemergence; assay type: in vivo, Lolium multiflorum; conditions: 10 days, 0 to 100 scale (0 no effect, 100 complete control)
In short: as §1

[22] = system: kochia; assay: Test C postemergence; assay type: in vivo, Bassia scoparia; conditions: 10 days, 0 to 100 scale (0 no effect, 100 complete control)
In short: as §1

[23] = system: blackgrass; assay: Test C postemergence; assay type: in vivo, Alopecurus myosuroides; conditions: 10 days, 0 to 100 scale (0 no effect, 100 complete control)
In short: as §1

[24] = system: galium; assay: Test C postemergence; assay type: in vivo, Galium aparine; conditions: 10 days, 0 to 100 scale (0 no effect, 100 complete control)
In short: as §1

[25] = system: corn; assay: Test C preemergence; assay type: in vivo, Zea mays
In short: as §1

[26] = system: corn; assay: Test C postemergence; assay type: in vivo, Zea mays; conditions: 10 days, 0 to 100 scale (0 no effect, 100 complete control)
In short: as §1

[27] = system: pigweed, palmer; assay: Test C preemergence; assay type: in vivo, Amaranthus palmeri
In short: as §1

[28] = system: rice; assay: Test D flooded paddy test; assay type: in vivo, Oryza sativa; conditions: 250 g ai/ha, applied to paddy water, visual rating after 13 to 14 days, scale 0 to 100 (0 no effect, 100 complete control)
In short: as §2

[29] = 500 g ai/ha, preemergence, 0 to 100 scale (0 no effect, 100 complete control)
[30] = Preemergence, 125 g ai/ha, 0 to 100 scale, 0 no effect, 100 complete control

SMILES: C[C@H]1CN(C(=O)c2cc(-n3cncn3)cc(C(F)(F)F)c2)c2cccc(Cl)c2O1 [Compound 335]
- Plant response rating, Ragweed ([1]; 500 g ai/ha, postemergence): 20
- Plant response rating, Ragweed ([1]; Postemergence, 125 g ai/ha): 0
- Ragweed plant response rating [2, 29]: 0
- Plant response rating, Ragweed [2, 30]: 0
- Plant response rating, Oat, Wild ([3]; 500 g ai/ha, postemergence): 0
- Plant response rating, Oat, Wild ([3]; Postemergence, 125 g ai/ha): 0
- Plant response rating, Sedge, Umbrella (Flood) [4]: 35
- Plant response rating, Barnyardgrass (Flood) [5]: 0
- Foxtail, Giant plant response rating [6, 29]: 90
- Plant response rating, Foxtail, Giant [6, 30]: 30
- Plant response rating, Wheat ([7]; 500 g ai/ha, postemergence): 20
- Plant response rating, Wheat ([7]; Postemergence, 125 g ai/ha): 10
- Soybean plant response rating [8, 29]: 30
- Plant response rating, Soybean [8, 30]: 0
- Oat, Wild plant response rating [9, 29]: 10
- Plant response rating, Oat, Wild [9, 30]: 0
- Barnyardgrass plant response rating [10, 29]: 60
- Plant response rating, Barnyardgrass [10, 30]: 20
- Plant response rating, Horseweed ([11]; 500 g ai/ha, postemergence): 0
- Plant response rating, Horseweed ([11]; Postemergence, 125 g ai/ha): 0
- Ryegrass, Italian plant response rating [12, 29]: 80
- Plant response rating, Ryegrass, Italian [12, 30]: 30
- Kochia plant response rating [13, 29]: 20
- Plant response rating, Kochia [13, 30]: 0
- Plant response rating, Ducksalad (Flood) [14]: 35
- Plant response rating, Pigweed, Palmer ([15]; 500 g ai/ha, postemergence): 60
- Plant response rating, Pigweed, Palmer ([15]; Postemergence, 125 g ai/ha): 10
- Plant response rating, Foxtail, Giant ([16]; 500 g ai/ha, postemergence): 50
- Plant response rating, Foxtail, Giant ([16]; Postemergence, 125 g ai/ha): 20
- Plant response rating, Soybean ([17]; 500 g ai/ha, postemergence): 100
- Plant response rating, Soybean ([17]; Postemergence, 125 g ai/ha): 90
- Plant response rating, Barnyardgrass ([18]; 500 g ai/ha, postemergence): 20
- Plant response rating, Barnyardgrass ([18]; Postemergence, 125 g ai/ha): 10
- Wheat plant response rating [19, 29]: 0
- Plant response rating, Wheat [19, 30]: 0
- Blackgrass plant response rating [20, 29]: 80
- Plant response rating, Blackgrass [20, 30]: 20
- Plant response rating, Ryegrass, Italian ([21]; 500 g ai/ha, postemergence): 30
- Plant response rating, Ryegrass, Italian ([21]; Postemergence, 125 g ai/ha): 10
- Plant response rating, Kochia ([22]; 500 g ai/ha, postemergence): 30
- Plant response rating, Kochia ([22]; Postemergence, 125 g ai/ha): 10
- Plant response rating, Blackgrass ([23]; 500 g ai/ha, postemergence): 20
- Plant response rating, Blackgrass ([23]; Postemergence, 125 g ai/ha): 0
- Plant response rating, Galium ([24]; 500 g ai/ha, postemergence): 50
- Plant response rating, Galium ([24]; Postemergence, 125 g ai/ha): 50
- Corn plant response rating [25, 29]: 10
- Plant response rating, Corn [25, 30]: 0
- Plant response rating, Corn ([26]; 500 g ai/ha, postemergence): 10
- Plant response rating, Corn ([26]; Postemergence, 125 g ai/ha): 10
- Pigweed, Palmer plant response rating [27, 29]: 60
- Plant response rating, Pigweed, Palmer [27, 30]: 0
- Plant response rating, Rice (Flood) [28]: 0
